In publication PMC11494886, “Discovery and design of molecular glue enhancers of CDK12–DDB1 interactions for targeted degradation of cyclin K” (RSC Chemical Biology, 2024):
Read-outs that look alike come from different tables or passages of the source.

Legend:
[1] = molecular target: T1, Cdk12/CycK and DDB1ΔB (Homo sapiens, UniProt Q16531+Q9NYV4, DEL396-705); assay: Analytical size-exclusion chromatography of DDB1ΔB and Cdk12/CycK; format: binding; settings: 20 μM proteins, 60 μM compound, vs DMSO and THZ531
T1 construct: the Cdk12 (714–1063)/CycK (1–267) complex and the DDB1ΔB protein; made in house; host or cells: Sf9 insect cells (MultiBacTurbo)
Experimental: Analytical size-exclusion chromatography was employed to investigate compound-induced protein–protein interactions between the heterodimeric Cdk12 (714–1063)/CycK (1–267) complex and the RING E3 ligase-associated adaptor protein DDB1ΔB. The analysis was conducted on an Agilent 1260 Infinity II HPLC system (Agilent Technologies), coupled with a Superdex 200 Increase 3.2/300 column (Cytiva), pre-equilibrated in Cdk12 SEC buffer (20 mM Hepes pH 7.8, 400 mM NaCl, 1 mM TCEP) supplemented with 1 g L^−1 carboxymethyl-dextran. Purified proteins, combined in equimolar ratios (20 μM Cdk12/CycK and DDB1ΔB, respectively) were supplemented with 3-fold molar excess of small molecular compounds. The resulting protein mixtures were diluted to a final volume of 25 μL using the kinases SEC-buffer ensuring a final DMSO concentration of 2%, followed by an incubation period of 10 min. Upon injection into the analytical system, the chromatography was conducted at a controlled flow rate of 0.05 mL min^−1, with protein absorbance monitored at 280 nm wavelength. Peak fractions were collected drop by drop and subsequently subjected to analysis via dynamic light scattering (DLS) to assess their size distribution, along with SDS-PAGE analysis to determine the composition of the protein complex.

[2] = molecular target: T1, Cdk12/CycK and DDB1ΔB; assay: Dynamic light scattering of SEC peak fractions; format: binding; settings: SEC peak middle fractions, vs negative controls
Experimental: To evaluate particle size distribution in liquid solution, dynamic light scattering was employed. Specifically, 10 μL fractions from the central region of peaks obtained in analytical size exclusion chromatography runs were analyzed. This analysis was performed using a DynaPro NanoStar 672 (Wyatt Technology) in a disposable DLS MicroCuvette (Wyatt Technology), while maintaining a constant temperature of 25 °C. Each measurement was conducted with an acquisition time of 3 s, and each data point depicted in the Results section represents the average of 20 individual DLS measurements. The hydrodynamic radius of the protein samples was determined using the processing and analysis software DYNAMICS.

[3] = molecular target: T1, Cdk12/CycK and DDB1ΔB; assay: GST pulldown assay, recruitment of DDB1ΔB to Cdk12/CycK; format: binding; settings: GST-Cdk12/GST-CycK bait, 5 μM compound, vs DMSO
Experimental: The pulldown assay was utilized to identify drug-triggered protein–protein interactions involving the Cdk12 (714–1063)/CycK (1–267) complex and the DDB1ΔB protein. In this assay, purified GST-tagged Cdk12 construct complexed with GST-CycK was combined with equimolar amounts of His6-tagged DDB1ΔB (5 μM) in the presence of 5 μM of the respective small molecular compound in pulldown assay buffer (50 mM Hepes pH 7.4, 200 mM NaCl, 0.25 mM TCEP, 0.05% (v/v) Tween20), ensuring a 2% total DMSO concentration. Experimental controls included samples supplemented with 2% DMSO instead of compound as well as samples devoid of the GST-tagged Cdk12/CycK complex. Each sample was individually added to approximately 50 μL of pre-equilibrated glutathione agarose beads (Thermo Fisher Scientific). The bead suspensions were then subjected to a 2 h incubation period at room temperature with gentle agitation. After incubation, the beads were pelleted by centrifugation at 700 × g for 4 min, the supernatant was discarded, and the beads were washed three-times with 100 μL of pulldown assay buffer. Following the washing step, bound proteins were eluted from the beads with 50 μL of pulldown assay buffer supplemented with 10 mM GSH for 1 h at room temperature under rotation. Subsequently, the beads were again pelleted by centrifugation at 700 × g for 4 min and the resulting supernatants containing eluted protein fractions were mixed with 6 × SDS sample buffer at a 1 : 1 (v/v) ratio. The eluted protein samples were separated by SDS-PAGE and subjected to Coomassie brilliant blue staining for visualization and analysis.

[4] = molecular target: T2, CDK12/cyclin K + DDB1 (Homo sapiens, UniProt Q16531+Q9NYV4, DEL396-705); assay: Microscale thermophoresis, ternary complex formation; format: binding; settings: MST
T2 construct: The kinase domain of human CDK12 (Uniprot: Q9NYV4; a.a; 715–1050); GST (N, cleaved yes); made in house; host or cells: Spodoptera frugiperda SF9 insect cells (Bac-to-Bac); CDK12/cyclin K co-infected with S. cerevisiae CAK1
Experimental: Finally, the capacity of small molecules to induce a ternary complex between CDK12/cyclin K and DDB1 in vitro was assessed by microscale thermophoresis (MST). Labeled DDB1ΔBPB was combined with purified CDK12/cyclin K, and fluorescence intensity was monitored with increasing compound concentrations.
Cell pellets were harvested 48 hours post infection via centrifugation and lysed in buffer A (50 mM Tris–HCl (pH 8.0), 200 mM NaCl, 10 mM imidazole, 0.5 mM tris(2-carboxyethyl) phosphine (TCEP)) supplemented with EDTA-free Pierce™ protease inhibitor tablet (Thermo Fisher Scientific). […] The concentrated protein at 2 mg mL^−1 was flash-frozen in liquid nitrogen and stored at −80 °C.
Full-length S. cerevisiae CAK1 (Uniprot: P43568) with an N-terminal His6 tag was subcloned into pFastBac 1 vector. […] The eluted CDK12/cyclin K complex was concentrated to 2 mg mL^−1, flash-frozen in liquid nitrogen and stored at −80 °C.
A protocol to assess ternary binding of molecular glues with CDK12/cycK and DDB1 by MST was established using published procedures for PROTAC interaction with bromodomains and E3 ubiquitin ligases.[38] His8-DDB1-ΔBPB was labeled with the MO-L018 Monolith™ His-tag Labeling Kit RED-tris-NTA 2nd Generation (NanoTemper Technologies) following the instruction manual. 100 nM dye was mixed with 200 nM DDB1 in 50 mM HEPES pH 7.5, 150 mM NaCl, 5% glycerol, 0.05% Tween, and incubated at room temperature for 30 min. […] MST traces were recorded using standard parameters: 5 s MST power off, 30 s MST power on and 5 s MST power off. Measurements were taken at −1 to 0 s (cold region) and 9–10 s (hot region). Data were analyzed using a fitting function derived from the law of mass action:1 [drawing 6] where f(c) is the fluorescence signal (Fnorm) at a given ligand concentration (c), B is Fnorm of fully liganded DDB1 at high ligand concentrations, U is Fnorm of DDB1 alone at low ligand concentrations, Kd is the dissociation constant or binding affinity, cT is the final concentration of DDB1 in the assay (Fig. 3G). For normalization, the data were first transformed using eqn (2) where y is the fraction bound, followed by fitting to eqn (3) (Fig. 5B–E).2 [drawing 7] 3 [drawing 8]

[5] = system: cyclin K; assay: Immunofluorescence of nuclear cyclin K in MDA-MB-231 cells; format: cell-based, human; settings: MDA-MB-231 cells, 0.5 µM, 2 h
Experimental: Cells were fixed with 4% PFA in PBS at room temperature, permeabilized with 0.1% Triton X-100 in PBS, and blocked with 3% BSA in PBS at room temperature. Cells were incubated with primary antibodies overnight at 4 °C, followed by incubation with Alexa-Fluor conjugated secondary antibodies for 1 hour at room temperature. Cell nuclei were stained using DAPI. Images were acquired on a confocal microscope (Leica). ImageJ and QuPath were used for image analysis.
Figure S8. Immunofluorescence staining for cyclin K degradation. MDA-MB-231 cells were
treated for 2 h with either DMSO or the indicated compounds (0.5 µM) . Cells were fixed and
Nuclei were stained with DAPI (blue). […]

[6] = system: HiBiT-tagged cyclin K; assay: HiBiT cyclin K degradation assay (DC50, Dmax); format: cell-based; settings: HiBiT-CCNK KI A549 cells, 2 hours, vs DMSO
Experimental: Next, we utilized HiBiT technology (Promega) for quantitative analysis of cyclin K degrader activity. […] Importantly, knockout of CDK12 using CRISPR/Cas9 protected cyclin K from SR-4835-induced degradation (Fig. 1D). We verified the depletion of CDK12 in HEK-293T cells (Fig. S3, ESI ^†).
The HiBiT-CCNK KI A549 cells (Promega) were seeded in 384 well plate and treated with the test compounds for 2 hours in a dose dependent manner. Nano-Glo® HiBiT Lytic Detection System (Promega) composed of the Nano-Glo® HiBiT Lytic Substrate, Nano-Glo® HiBiT Lytic Buffer and LgBiT Protein was used as per the manufacturer's instructions. Briefly, a 2× Nano-Glo® HiBiT Lytic Detection Reagent mixture was prepared by adding 20 μL of Nano-Glo® HiBiT Lytic Substrate and 10 μL of LgBiT protein per every 1 mL of Nano-Glo® HiBiT Lytic Buffer. After incubating the cells with the 2× Nano-Glo® HiBiT Lytic Detection Reagent mixture, luminescence was measured. HiBiT tagged cyclin K present at any given concentration was measured by normalizing the luminescence signal at that concentration to the luminescence signal from the DMSO (control) cells. The concentration necessary to achieve a 50% reduction in cyclin K levels (DC50) and the maximum achievable reduction in cyclin K levels (Dmax) was computed from this assay.

[7] = molecular target: CDK12 (Homo sapiens, UniProt Q9NYV4); assay: CDK12 functional (kinase inhibition) assay; format: biochemical; settings: vs MR-1187
Sequence of CDK12 (Q9NYV4 whole entry): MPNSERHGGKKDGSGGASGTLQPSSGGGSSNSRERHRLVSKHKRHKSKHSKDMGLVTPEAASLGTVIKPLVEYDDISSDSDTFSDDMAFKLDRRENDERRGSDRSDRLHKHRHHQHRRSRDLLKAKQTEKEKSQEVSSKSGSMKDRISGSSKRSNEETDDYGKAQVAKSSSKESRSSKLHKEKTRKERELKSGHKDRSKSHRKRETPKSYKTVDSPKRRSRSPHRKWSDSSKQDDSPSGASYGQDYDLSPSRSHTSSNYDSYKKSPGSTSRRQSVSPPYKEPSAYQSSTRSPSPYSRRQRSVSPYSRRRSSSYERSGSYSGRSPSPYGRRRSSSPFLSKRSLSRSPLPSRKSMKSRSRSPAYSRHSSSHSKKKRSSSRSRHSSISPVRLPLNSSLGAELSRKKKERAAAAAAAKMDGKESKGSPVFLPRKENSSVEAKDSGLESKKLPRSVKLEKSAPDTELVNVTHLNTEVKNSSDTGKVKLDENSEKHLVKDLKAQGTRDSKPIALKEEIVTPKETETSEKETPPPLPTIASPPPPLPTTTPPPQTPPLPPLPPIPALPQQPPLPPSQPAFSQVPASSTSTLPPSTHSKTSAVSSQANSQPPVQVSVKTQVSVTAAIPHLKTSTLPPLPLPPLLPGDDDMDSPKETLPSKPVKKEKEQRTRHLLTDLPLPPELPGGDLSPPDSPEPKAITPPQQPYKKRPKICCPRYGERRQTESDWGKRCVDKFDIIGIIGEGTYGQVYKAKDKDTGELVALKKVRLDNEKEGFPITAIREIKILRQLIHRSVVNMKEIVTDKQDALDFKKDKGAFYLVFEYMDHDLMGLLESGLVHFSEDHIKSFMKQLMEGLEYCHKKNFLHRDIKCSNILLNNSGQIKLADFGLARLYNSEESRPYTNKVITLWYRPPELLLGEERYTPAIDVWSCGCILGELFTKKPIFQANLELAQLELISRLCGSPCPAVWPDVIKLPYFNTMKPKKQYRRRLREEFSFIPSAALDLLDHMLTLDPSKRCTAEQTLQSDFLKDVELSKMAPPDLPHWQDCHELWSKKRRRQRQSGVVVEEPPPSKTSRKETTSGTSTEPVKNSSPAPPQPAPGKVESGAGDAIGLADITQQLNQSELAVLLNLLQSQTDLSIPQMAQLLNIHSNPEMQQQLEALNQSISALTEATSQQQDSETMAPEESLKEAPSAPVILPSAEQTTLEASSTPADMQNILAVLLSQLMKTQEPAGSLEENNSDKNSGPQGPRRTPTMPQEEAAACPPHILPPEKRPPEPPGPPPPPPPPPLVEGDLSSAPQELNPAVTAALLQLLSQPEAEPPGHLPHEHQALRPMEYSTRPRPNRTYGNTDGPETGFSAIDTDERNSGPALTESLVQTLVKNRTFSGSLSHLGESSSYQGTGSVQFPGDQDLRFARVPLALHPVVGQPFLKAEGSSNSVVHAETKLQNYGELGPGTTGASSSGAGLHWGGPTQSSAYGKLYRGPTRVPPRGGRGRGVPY
Sequence of CDK12 (O75909 whole entry partner): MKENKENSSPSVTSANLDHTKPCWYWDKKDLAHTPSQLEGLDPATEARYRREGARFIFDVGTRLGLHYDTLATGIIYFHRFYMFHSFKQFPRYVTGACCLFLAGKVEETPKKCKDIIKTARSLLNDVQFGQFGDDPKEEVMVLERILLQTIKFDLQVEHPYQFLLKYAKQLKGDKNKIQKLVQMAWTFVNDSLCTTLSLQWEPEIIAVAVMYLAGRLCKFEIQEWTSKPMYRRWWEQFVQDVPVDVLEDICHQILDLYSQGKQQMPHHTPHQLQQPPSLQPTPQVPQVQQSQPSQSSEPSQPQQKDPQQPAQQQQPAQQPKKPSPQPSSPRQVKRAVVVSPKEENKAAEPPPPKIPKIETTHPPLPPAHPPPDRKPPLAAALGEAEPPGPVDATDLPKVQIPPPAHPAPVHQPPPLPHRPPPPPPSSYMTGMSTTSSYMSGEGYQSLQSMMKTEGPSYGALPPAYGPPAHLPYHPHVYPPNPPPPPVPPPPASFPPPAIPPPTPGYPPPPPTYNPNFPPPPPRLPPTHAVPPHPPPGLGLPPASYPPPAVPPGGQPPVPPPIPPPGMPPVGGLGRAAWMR

T1 sequence (Q9NYV4 714-1063, stated change not applied): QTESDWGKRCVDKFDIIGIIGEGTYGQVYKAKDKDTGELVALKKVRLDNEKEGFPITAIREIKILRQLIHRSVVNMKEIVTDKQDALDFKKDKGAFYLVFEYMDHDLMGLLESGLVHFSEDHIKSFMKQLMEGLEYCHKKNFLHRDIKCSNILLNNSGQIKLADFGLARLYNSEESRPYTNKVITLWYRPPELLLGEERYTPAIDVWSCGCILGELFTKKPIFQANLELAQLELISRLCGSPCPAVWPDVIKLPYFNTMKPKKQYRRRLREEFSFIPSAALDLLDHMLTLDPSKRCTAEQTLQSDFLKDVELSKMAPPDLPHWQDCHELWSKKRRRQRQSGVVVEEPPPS
T1 sequence (O75909 1-267 partner limits assumed): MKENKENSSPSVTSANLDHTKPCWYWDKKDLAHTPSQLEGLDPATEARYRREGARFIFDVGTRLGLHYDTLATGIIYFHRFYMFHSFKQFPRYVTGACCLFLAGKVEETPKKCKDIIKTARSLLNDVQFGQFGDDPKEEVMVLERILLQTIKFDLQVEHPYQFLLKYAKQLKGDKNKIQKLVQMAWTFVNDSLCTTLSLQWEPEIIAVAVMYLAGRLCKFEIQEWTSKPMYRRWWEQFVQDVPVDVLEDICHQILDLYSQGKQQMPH
T1 sequence (Q16531 with tags, fused parts or gaps DEL396-705): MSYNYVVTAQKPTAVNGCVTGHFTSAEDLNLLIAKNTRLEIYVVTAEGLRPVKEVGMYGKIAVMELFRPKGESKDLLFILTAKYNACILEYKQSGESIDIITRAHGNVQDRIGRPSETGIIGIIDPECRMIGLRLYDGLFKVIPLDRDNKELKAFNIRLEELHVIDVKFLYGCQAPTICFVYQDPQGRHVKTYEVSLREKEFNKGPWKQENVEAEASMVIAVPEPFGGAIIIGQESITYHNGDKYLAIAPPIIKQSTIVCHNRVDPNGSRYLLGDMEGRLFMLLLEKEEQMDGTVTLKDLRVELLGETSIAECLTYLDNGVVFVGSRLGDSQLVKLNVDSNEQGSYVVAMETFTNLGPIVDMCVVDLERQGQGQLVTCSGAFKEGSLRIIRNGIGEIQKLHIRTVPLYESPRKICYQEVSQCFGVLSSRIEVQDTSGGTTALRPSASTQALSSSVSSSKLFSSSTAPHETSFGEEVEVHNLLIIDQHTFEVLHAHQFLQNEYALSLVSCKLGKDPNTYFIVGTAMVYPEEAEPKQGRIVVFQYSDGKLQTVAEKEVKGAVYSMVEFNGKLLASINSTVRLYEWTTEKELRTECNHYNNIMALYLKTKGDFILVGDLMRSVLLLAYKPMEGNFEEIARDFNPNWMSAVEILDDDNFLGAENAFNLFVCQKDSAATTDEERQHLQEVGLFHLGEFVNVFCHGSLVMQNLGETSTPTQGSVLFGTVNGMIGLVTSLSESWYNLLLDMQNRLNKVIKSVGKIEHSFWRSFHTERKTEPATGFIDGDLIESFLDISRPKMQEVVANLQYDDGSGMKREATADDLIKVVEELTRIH
T2 sequence (Q16531 with tags, fused parts or gaps DEL396-705): as above
T2 sequence (Q9NYV4 715-1050, stated change not applied): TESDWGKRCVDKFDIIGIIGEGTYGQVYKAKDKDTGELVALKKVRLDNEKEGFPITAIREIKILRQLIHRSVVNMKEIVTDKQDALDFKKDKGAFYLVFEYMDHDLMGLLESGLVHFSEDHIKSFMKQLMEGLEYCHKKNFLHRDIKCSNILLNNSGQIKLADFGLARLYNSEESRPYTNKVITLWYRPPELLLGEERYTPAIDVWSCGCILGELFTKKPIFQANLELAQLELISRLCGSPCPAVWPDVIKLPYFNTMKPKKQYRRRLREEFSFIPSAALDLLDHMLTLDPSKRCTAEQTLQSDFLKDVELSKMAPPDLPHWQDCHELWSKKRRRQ
T2 sequence (O75909 11-267 partner limits assumed): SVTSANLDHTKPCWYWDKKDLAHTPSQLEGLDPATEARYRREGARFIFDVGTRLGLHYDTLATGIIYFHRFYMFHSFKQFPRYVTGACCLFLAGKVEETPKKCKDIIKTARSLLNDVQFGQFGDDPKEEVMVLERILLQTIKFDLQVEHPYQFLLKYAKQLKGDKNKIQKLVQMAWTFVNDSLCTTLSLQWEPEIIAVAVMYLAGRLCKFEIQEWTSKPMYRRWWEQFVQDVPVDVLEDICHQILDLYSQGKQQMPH

For `CC[C@H](CO)Nc1nc(NCc2ccc(-c3ccccn3)cc2)c2ncn(C(C)C)c2n1` [CR8, reference compound], the “retention time in analytical SEC (ternary complex formation)” value [1] was “reduced retention times”, the “hydrodynamic radius (DLS)” value [2] was “significantly increased” and the “recruitment of DDB1ΔB in pulldown” value [3] was “enrichment of DDB1ΔB fractions”.
With `CCc1cnn2c(NCc3nc4cc(Cl)c(Cl)cc4[nH]3)cc(N3CCCC[C@H]3CCO)nc12` [MR-1226, (S)-2-(1-(7-(((5,6-Dichloro-1H-benzo[d]imidazol-2-yl)methyl)amino)-3-ethylpyrazolo[1,5-a]pyrimidin-5-yl)piperidin-2-yl)ethan-1-ol] the Kd ([4]; labeled DDB1 + CDK12/cyclin K, run #1, read-out: Kd ternary complex formation, replicate #1) was 8.7 ± 2.7 nM, the Kd ([4]; labeled DDB1 + CDK12/cyclin K, run #2, read-out: Kd ternary complex formation, replicate #2) was 10.3 ± 4 nM and the Kd ([4]; labeled DDB1 + CDK12/cyclin K, run #3, read-out: Kd ternary complex formation, replicate #3) was 9.6 ± 3.3 nM. For the same molecule, the Kd ([4]; labeled DDB1ΔBPB 10 nM + CDK12/cyclin K 1000 nM, mean of replicates, read-out: Kd ternary complex formation (average)) was 9.5 nM, the “cyclin K nuclear intensity compared to control” value [5] was “reduced” and the “Dmax (maximum reduction in cyclin K levels)” value [6] was over 95%. For the same molecule, the “fold better CDK12 kinase inhibition compared to MR-1187” value [7] was 35 fold.
